Source: PubChem BioAssay AID1259407 (Chemical Carcinogenesis Research Information System (CCRIS), 2018)
Active and inactive are the calls of the source. No rule for the calls is given here.

System: CCRIS mutagenicity, Ames/micronucleus/aberration tests
Assay: CCRIS mutagenicity studies
Settings: Test System: AMES SALMONELLA TYPHIMURIUM
[1] = Strain/Indicator: TA98, Metabolic Activation: HAMSTER, LIVER, S-9, AROCLOR 1254 (10%), Method: PREINCUBATION
[2] = Strain/Indicator: TA98, Metabolic Activation: NONE, Method: PREINCUBATION
[3] = Strain/Indicator: TA98, Metabolic Activation: RAT, LIVER, S-9, AROCLOR 1254 (10%), Method: PREINCUBATION
[4] = Strain/Indicator: TA100, Metabolic Activation: HAMSTER, LIVER, S-9, AROCLOR 1254 (10%), Method: PREINCUBATION
[5] = Strain/Indicator: TA100, Metabolic Activation: NONE, Method: PREINCUBATION
[6] = Strain/Indicator: TA100, Metabolic Activation: RAT, LIVER, S-9, AROCLOR 1254 (10%), Method: PREINCUBATION
[7] = Strain/Indicator: TA1535, Metabolic Activation: HAMSTER, LIVER, S-9, AROCLOR 1254 (10%), Method: PREINCUBATION
[8] = Strain/Indicator: TA1535, Metabolic Activation: NONE, Method: PREINCUBATION
[9] = Strain/Indicator: TA1535, Metabolic Activation: RAT, LIVER, S-9, AROCLOR 1254 (10%), Method: PREINCUBATION

Measured: mutagenic call

CC(O)C#N (centres undefined)
inactive: Strain/Indicator: TA97, Metabolic Activation: HAMSTER, LIVER, S-9, AROCLOR 1254 (10%), Method: PREINCUBATION inactive; negative | Strain/Indicator: TA97, Metabolic Activation: HAMSTER, LIVER, S-9, AROCLOR 1254 (30%), Method: PREINCUBATION inactive; negative | Strain/Indicator: TA97, Metabolic Activation: NONE, Method: PREINCUBATION inactive; negative | Strain/Indicator: TA97, Metabolic Activation: RAT, LIVER, S-9, AROCLOR 1254 (5%), Method: PREINCUBATION inactive; negative | Strain/Indicator: TA97, Metabolic Activation: RAT, LIVER, S-9, AROCLOR 1254 (10%), Method: PREINCUBATION inactive; negative | Strain/Indicator: TA97, Metabolic Activation: RAT, LIVER, S-9, AROCLOR 1254 (30%), Method: PREINCUBATION inactive; negative | [1] inactive; negative | Strain/Indicator: TA98, Metabolic Activation: HAMSTER, LIVER, S-9, AROCLOR 1254 (30%), Method: PREINCUBATION inactive; negative | [2] inactive; negative | [3] inactive; negative | Strain/Indicator: TA98, Metabolic Activation: RAT, LIVER, S-9, AROCLOR 1254 (30%), Method: PREINCUBATION inactive; negative | [4] inactive; negative | Strain/Indicator: TA100, Metabolic Activation: HAMSTER, LIVER, S-9, AROCLOR 1254 (30%), Method: PREINCUBATION inactive; negative | [5] inactive; negative | Strain/Indicator: TA100, Metabolic Activation: RAT, LIVER, S-9, AROCLOR 1254 (5 OR 30%), Method: PREINCUBATION inactive; negative | [6] inactive; negative | [7] inactive; negative | Strain/Indicator: TA1535, Metabolic Activation: HAMSTER, LIVER, S-9, AROCLOR 1254 (30%), Method: PREINCUBATION inactive; negative | [8] inactive; negative | [9] inactive; negative | Strain/Indicator: TA1535, Metabolic Activation: RAT, LIVER, S-9, AROCLOR 1254 (30%), Method: PREINCUBATION inactive; negative | Strain/Indicator: TA1537, Metabolic Activation: HAMSTER, LIVER, S-9, AROCLOR 1254 (30%), Method: PREINCUBATION inactive; negative | Strain/Indicator: TA1537, Metabolic Activation: RAT, LIVER, S-9, AROCLOR 1254 (30%), Method: PREINCUBATION inactive; negative

Nc1nc(N)c2nc(-c3ccccc3)c(N)nc2n1
inactive: [1] inactive; negative | [2] inactive; negative | [3] inactive; negative | [4] inactive; negative | [5] inactive; negative | [6] inactive; negative | [7] inactive; negative | [8] inactive; negative | [9] inactive; negative | Strain/Indicator: TA1537, Metabolic Activation: HAMSTER, LIVER, S-9, AROCLOR 1254 (10%), Method: PREINCUBATION inactive; negative | Strain/Indicator: TA1537, Metabolic Activation: NONE, Method: PREINCUBATION inactive; negative | Strain/Indicator: TA1537, Metabolic Activation: RAT, LIVER, S-9, AROCLOR 1254 (10%), Method: PREINCUBATION inactive; negative

CC(=O)OC[C@@]1(O)CC23CC[C@@H]4c5ccoc5C=C[C@@]4(C)[C@@H]2CC[C@@H]1C3
inactive: Strain/Indicator: TM677, Metabolic Activation: NONE, Method: PREINCUBATION inactive; negative | Strain/Indicator: TM677, Metabolic Activation: RAT, LIVER, S-9, AROCLOR 1254, Method: PREINCUBATION inactive; negative

CC1=C(C(=O)Nc2ccccc2)SCCO1
inactive: Strain/Indicator: TA97A, Metabolic Activation: NONE, Method: STANDARD PLATE inactive; negative | Strain/Indicator: TA97A, Metabolic Activation: PLANT, HOMOGENATE, S-14, Method: STANDARD PLATE inactive; negative | Strain/Indicator: TA97A, Metabolic Activation: S-9, Method: STANDARD PLATE inactive; negative | Strain/Indicator: TA98, Metabolic Activation: NONE, Method: STANDARD PLATE inactive; negative | Strain/Indicator: TA98, Metabolic Activation: PLANT, HOMOGENATE, S-14, Method: STANDARD PLATE inactive; negative | Strain/Indicator: TA98, Metabolic Activation: S-9, Method: STANDARD PLATE inactive; negative | Strain/Indicator: TA100, Metabolic Activation: NONE, Method: STANDARD PLATE inactive; negative | Strain/Indicator: TA100, Metabolic Activation: PLANT, HOMOGENATE, S-14, Method: STANDARD PLATE inactive; negative | Strain/Indicator: TA100, Metabolic Activation: S-9, Method: STANDARD PLATE inactive; negative | Strain/Indicator: TA1535, Metabolic Activation: NONE, Method: STANDARD PLATE inactive; negative | Strain/Indicator: TA1535, Metabolic Activation: PLANT, HOMOGENATE, S-14, Method: STANDARD PLATE inactive; negative | Strain/Indicator: TA1535, Metabolic Activation: S-9, Method: STANDARD PLATE inactive; negative
